Test results published in the NIST ThermoML archive (doi:10.1016/j.jct.2015.06.009).

Columns and labels:
[1] = 101 kPa, Liquid; for speed of sound: Frequency=3 MHz, Sing-around technique in a fixed-path interferometer; for mass density: Vibrating tube method
[2] = refractive index (Na D-line) (dimensionless); conditions: 298.15 K; 101.33 kPa; Liquid; Standard Abbe refractometry
[3] = xn = mol fraction of the nth substance listed; conditions: 101 kPa, Liquid; for speed of sound: Frequency=3 MHz, Sing-around technique in a fixed-path interferometer; for mass density: Vibrating tube method

COC(C)(C)C [2-methoxy-2-methylpropane]
[1]
Conditions	mass density [kg/m3]	speed of sound [m/s]
298.15 K	735.21	1036.3
308.15 K	724.64	990.46
318.15 K	714	944.87
328.15 K	703.29	–

Conditions	refractive index
[2]	1.36648

CCCCO [butan-1-ol]
[1]
Conditions	mass density [kg/m3]	speed of sound [m/s]
298.15 K	805.73	1240
308.15 K	798.07	1206.6
318.15 K	790.37	1173.4
328.15 K	782.58	1140.4

Conditions	refractive index
[2]	1.39733

CCCCO [butan-1-ol] + COC(C)(C)C
[3], x2 = 0
Conditions	mass density [kg/m3]	speed of sound [m/s]
298.15 K	805.73	1240
308.15 K	798.07	1206.6
318.15 K	790.37	1173.4
328.15 K	782.58	1140.4

CCCCO [butan-1-ol] + Cc1ccccc1
[3]
Conditions	mass density, 298.15 K [kg/m3]	mass density, 308.15 K [kg/m3]	mass density, 318.15 K [kg/m3]	mass density, 328.15 K [kg/m3]	speed of sound, 298.15 K [m/s]	speed of sound, 308.15 K [m/s]	speed of sound, 318.15 K [m/s]	speed of sound, 328.15 K [m/s]
x2 = 0.2008	818.72	810.48	802.18	793.77	1248	1212.2	1176.5	1141.2
x2 = 0.4064	830.53	821.82	813.05	804.18	1255.5	1217.6	1180.1	1143
x2 = 0.5993	840.92	831.87	822.79	813.62	1263.8	1224.6	1185.7	1147.5
x2 = 0.7995	851.36	842.08	832.78	823.42	1277.3	1237.1	1197.3	1158.2

Cc1ccccc1 [toluene]
[1]
Conditions	mass density [kg/m3]	speed of sound [m/s]
298.15 K	862.18	1305.3
308.15 K	852.87	1262.5
318.15 K	843.58	1220.2
328.15 K	834.29	1178.5

Conditions	refractive index
[2]	1.49393
